# In ChEMBL document CHEMBL1201862, “PubChem BioAssay data set” (2004):
#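 48-hour exposure; five concentrations; linearly interpolated endpoints. GI50 = concentration required for 50% inhibition of growth.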 Calls of active or inactive are those of the source. Rule as the data show it: active = GI50 up to about 1.1 µM and inactive = higher. Square brackets hold non-standard residues; d marks the D form. Peptide text beside a SMILES is read from it. pGlu = O=C1CC[CH](C(=O)O)N1
# What was measured:
# Experiment in all cases: inhibition of tumour cell growth, NCI panel, 48 h
# MCF7 = system: MCF7
# NCI-H460 = system: NCI-H460
# SNB-75 = system: SNB-75
# PC-3 = system: PC-3
# DU-145 = system: DU-145
# HCT-15 = system: HCT-15
# Malme-3M = system: Malme-3M
# MDA-N = system: MDA-N
# 786-0 = system: 786-0
# HCC 2998 = system: HCC 2998
# CCRF-CEM = system: CCRF-CEM
# HOP-92 = system: HOP-92
# HOP-62 = system: HOP-62
# HT-29 = system: HT-29
# NCI-H226 = system: NCI-H226
# SW-620 = system: SW-620
# SN12C = system: SN12C
# NCI/ADR-RES = system: NCI/ADR-RES
# TK-10 = system: TK-10
# SK-OV-3 = system: SK-OV-3
SMILES,GI50 (MCF7),GI50 (NCI-H460),GI50 (SNB-75),GI50 (PC-3),GI50 (DU-145),GI50 (HCT-15),GI50 (Malme-3M),GI50 (MDA-N),GI50 (786-0),GI50 (HCC 2998),GI50 (CCRF-CEM),GI50 (HOP-92),GI50 (HOP-62),GI50 (HT-29),GI50 (NCI-H226),GI50 (SW-620),GI50 (SN12C),GI50 (NCI/ADR-RES),GI50 (TK-10),GI50 (SK-OV-3)
CCN1C(c2ccccc2)=CC(c2ccccc2)(C(Cl)(Cl)Cl)C=C1c1ccccc1,5.92 µM (inactive),7.5 µM (inactive),5.06 µM (inactive),20.6 µM (inactive),14.8 µM (inactive),42.9 µM,4.5 µM (inactive),4.94 µM (inactive),9.44 µM (inactive),3.04 µM (inactive),5.58 µM (inactive),3.11 µM (inactive),18.9 µM (inactive),3.48 µM (inactive),19.2 µM (inactive),7.82 µM (inactive),45.3 µM (inactive),40.1 µM (inactive),17.7 µM (inactive),–
C/C=C(/C)C(=O)O[C@H]1C(C)=C[C@]23C(=O)[C@@H](C=C(COC(C)=O)[C@@H](O)[C@]12O)[C@H]1[C@@H](C[C@H]3C)[C@@]1(C)OC(=O)/C(C)=C\C,2.35 µM (inactive),0.0244 µM (active),1.52 µM (inactive),1.4 µM (inactive),2.23 µM (inactive),2.96 µM,0.111 µM (active),1.17 µM (inactive),1.52 µM (inactive),1.49 µM (inactive),0.486 µM (active),1.25 µM (inactive),2.37 µM (inactive),0.411 µM (active),3.07 µM (inactive),2.55 µM (inactive),1.69 µM (inactive),2.65 µM (inactive),2.72 µM (inactive),4.19 µM (inactive)
CN(C)Cc1cc(C(=O)/C=C/c2cccc(Cl)c2)cc(CN(C)C)c1O,4.44 µM (inactive),3.05 µM (inactive),1.95 µM (inactive),8.99 µM (inactive),6.3 µM (inactive),2.84 µM,–,3.1 µM (inactive),3.29 µM (inactive),10.6 µM (inactive),2.07 µM (inactive),4.31 µM (inactive),3.65 µM (inactive),4.18 µM (inactive),4.31 µM (inactive),4.41 µM (inactive),3.39 µM (inactive),18.5 µM (inactive),9.2 µM (inactive),–
Cc1cc(=O)oc2c(CNC(CC(C)C)C(=O)O)c(O)ccc12 (centres undefined),> 100 µM (inactive),> 100 µM (inactive),39.7 µM (inactive),> 100 µM (inactive),> 100 µM (inactive),> 100 µM,87.5 µM (inactive),> 100 µM (inactive),> 100 µM (inactive),> 100 µM (inactive),–,> 100 µM (inactive),> 100 µM (inactive),> 100 µM (inactive),> 100 µM (inactive),> 100 µM (inactive),> 100 µM (inactive),> 100 µM (inactive),> 100 µM (inactive),> 100 µM (inactive)
COC(=O)C(NC(=O)CNC(=O)CSc1nnc(COc2ccc(Cl)cc2)n1-c1ccccc1)C(C)C (centres undefined),16.1 µM (inactive),18.8 µM (inactive),21.3 µM (inactive),17.9 µM (inactive),18.8 µM (inactive),21.2 µM,18.4 µM (inactive),21.6 µM (inactive),18.4 µM (inactive),18.5 µM (inactive),21.7 µM (inactive),20.8 µM (inactive),26.5 µM (inactive),17.7 µM (inactive),19.1 µM (inactive),20.2 µM (inactive),18.4 µM (inactive),> 100 µM (inactive),16.9 µM (inactive),–
CC(=O)/N=C1\NC(=O)/C(=C/c2ccc(Cl)cc2Cl)N1C,> 100 µM (inactive),35.2 µM (inactive),58.1 µM (inactive),> 100 µM (inactive),60.4 µM (inactive),27.9 µM,–,> 100 µM (inactive),56.4 µM (inactive),> 100 µM (inactive),3.44 µM (inactive),83.8 µM (inactive),41.8 µM (inactive),52 µM (inactive),6.81 µM (inactive),80.9 µM (inactive),–,21.7 µM (inactive),> 100 µM (inactive),> 100 µM (inactive)
CC(NC(=O)C(Cc1c[nH]cn1)NC(=O)C1CCC(=O)N1)C(N)=O (stereo not drawn) ([pGlu]-His-Ala-NH2; configuration not given here),> 100 µM (inactive),> 100 µM (inactive),> 100 µM (inactive),> 100 µM (inactive),> 100 µM (inactive),–,> 100 µM (inactive),> 100 µM (inactive),> 100 µM (inactive),> 100 µM (inactive),> 100 µM (inactive),> 100 µM (inactive),> 100 µM (inactive),> 100 µM (inactive),> 100 µM (inactive),> 100 µM (inactive),> 100 µM (inactive),> 10 µM (inactive),> 100 µM (inactive),> 100 µM (inactive)
O=C(CCl)N1CCN(c2ccccc2)CC1,19.5 µM (inactive),18.8 µM (inactive),16.7 µM (inactive),40.9 µM (inactive),> 100 µM (inactive),20.1 µM,23.6 µM (inactive),22.6 µM (inactive),15.9 µM (inactive),17.6 µM (inactive),26.7 µM (inactive),21.4 µM (inactive),19.7 µM (inactive),23.6 µM (inactive),–,23.4 µM (inactive),–,44.1 µM (inactive),20 µM (inactive),70.1 µM (inactive)
O=c1cccccc1O [TROPOLONE],44 µM (inactive),26.5 µM (inactive),> 100 µM (inactive),83.4 µM (inactive),> 100 µM (inactive),34 µM,> 100 µM (inactive),> 100 µM (inactive),55.3 µM (inactive),79.8 µM (inactive),17.4 µM (inactive),> 100 µM (inactive),–,41.8 µM (inactive),> 100 µM (inactive),45.5 µM (inactive),–,39.6 µM (inactive),83.9 µM (inactive),> 100 µM (inactive)
C=CCN1C(=O)/C(=C/c2ccc(C)cc2)NC1=S,70.6 µM (inactive),> 100 µM (inactive),> 100 µM (inactive),> 100 µM (inactive),> 100 µM (inactive),> 100 µM,–,94.8 µM (inactive),> 100 µM (inactive),> 100 µM (inactive),33 µM (inactive),59.3 µM (inactive),> 100 µM (inactive),96.6 µM (inactive),88.3 µM (inactive),> 100 µM (inactive),> 100 µM (inactive),81.7 µM (inactive),> 100 µM (inactive),> 100 µM (inactive)
OCC1NC(COC2OC(CO)C(O)C(O)C2O)C(O)C(O)C1O (centres undefined),> 100 µM (inactive),> 100 µM (inactive),> 100 µM (inactive),> 100 µM (inactive),> 100 µM (inactive),> 100 µM,> 100 µM (inactive),> 100 µM (inactive),> 100 µM (inactive),> 100 µM (inactive),> 100 µM (inactive),> 100 µM (inactive),–,> 100 µM (inactive),> 100 µM (inactive),> 100 µM (inactive),> 100 µM (inactive),> 100 µM (inactive),> 100 µM (inactive),–
COc1ccc(NC(=S)C#N)cc1,> 100 µM (inactive),–,> 100 µM (inactive),> 100 µM (inactive),> 100 µM (inactive),> 100 µM,–,> 100 µM (inactive),> 100 µM (inactive),> 100 µM (inactive),54.1 µM (inactive),97.3 µM (inactive),> 100 µM (inactive),> 100 µM (inactive),> 100 µM (inactive),> 100 µM (inactive),> 100 µM (inactive),> 100 µM (inactive),> 100 µM (inactive),> 100 µM (inactive)
Brc1ccc(-c2ccc(-c3ccc(Br)s3)s2)s1,> 100 µM (inactive),> 100 µM (inactive),> 100 µM (inactive),> 100 µM (inactive),> 100 µM (inactive),> 100 µM,–,> 100 µM (inactive),> 100 µM (inactive),> 100 µM (inactive),> 100 µM (inactive),> 100 µM (inactive),> 100 µM (inactive),> 100 µM (inactive),> 100 µM (inactive),> 100 µM (inactive),> 100 µM (inactive),> 100 µM (inactive),> 100 µM (inactive),> 100 µM (inactive)
O=C(CCC=C(S(=O)(=O)c1ccccc1)S(=O)(=O)c1ccccc1)c1ccccc1,4.47 µM (inactive),12.9 µM (inactive),3.61 µM (inactive),3.64 µM (inactive),5.64 µM (inactive),5.98 µM,4.45 µM (inactive),3.69 µM (inactive),3.21 µM (inactive),7.66 µM (inactive),–,14.5 µM (inactive),16.8 µM (inactive),4.91 µM (inactive),17.4 µM (inactive),3.4 µM (inactive),3.26 µM (inactive),4.06 µM (inactive),6.38 µM (inactive),25.4 µM (inactive)
O=C1c2ccccc2CC12Cc1cc3c(cc1C2=O)CCC3 (centres undefined),> 100 µM (inactive),> 100 µM (inactive),> 100 µM (inactive),> 100 µM (inactive),> 100 µM (inactive),> 100 µM,> 100 µM (inactive),> 100 µM (inactive),> 100 µM (inactive),> 100 µM (inactive),> 100 µM (inactive),> 100 µM (inactive),> 100 µM (inactive),> 100 µM (inactive),–,> 100 µM (inactive),–,> 100 µM (inactive),> 100 µM (inactive),> 100 µM (inactive)
